Data set [1] relates to ddY strain male mice. In words: Acute toxicity test, intraperitoneal (Test method-(1)). The class given is in vivo. Conditions: 7 days. How it is done:
The lethal ratio was determined in ddY strain male mice (4 weeks old) at 7 days after the intraperitoneal injection of test compounds.

Data set [2] has as its system antigen-induced anaphylactic bronchoconstriction in passively sensitized guinea-pig. In words: Anaphylactic bronchoconstriction in passively sensitized guinea-pig, i.v. test. The data set is classed as in vivo. The following applies: i.v. 2 mg/kg, 1 min prior to EA challenge (10 mg/kg). The method, then: (§1) (iii) Effect on anaphylactic bronchoconstriction in passively sensitized guinea-pig
Male guinea-pigs (350-450 g) were passively sensitized with intravenous (i.v.) injection of 0.125 ml rabbit anti-EA (egg albumin) serum (Cappel Laboratories) 1 to 2 days preceding the experiment. […] Sensitized guinea-pigs were anaesthetized with intraperitoneal injection of urethane (1.5 g/kg). The right jugular vein was cannulated for the administration of the all agents and trachea was cannulated to record total pulmonary resistance. Guinea-pigs were artificially ventilated by a small animal respirator (Shinano, Model SN-480-7) set at a stroke volume of 4.5 ml and a rate of 50 breaths per min. […] The increase in air overflow volume was expresssed as a percentage of the maximum bronchoconstriction obtained by clamping off the trachea. Following surgical preparation, the animals were pretreated with indomethacin (0.2 mg/kg, 10 min), pyrilamine (2 mg/kg, 6 min) and propanolol (0.1 mg/kg, 5 min) prior to the EA challenge (0.1 or 10 mg/kg). All test compounds were administered intraveneously or orally before the EA challenge. Inhibition (%) of bronchoconstriction was determined as follows: Inhibition (%)=(1.0%-maximum bronchoconstriction in test/% maximum bronchoconstriction in control)×100. […] The number of test animals was 4 in the i.v. test and 6 in the p.o. test.
(a) The i.v. test: A test compound (2 mg/kg) was suspended or dissolved in 3% Tween 80 and intraveneously administered 1 min prior to the EA challlenge (10 mg/kg).

For data set [3], the system named is LTD4. In words: LTD4 antagonism in isolated guinea-pig trachea (method (i)). The following applies: Cavia porcellus, 5 min; for inhibition at 10 µg/mL: 10^-5 g/ml test compound, 5 min prior to LTD4 (2×10^-8 g/ml); for inhibition at 1 µg/mL: 10^-6 g/ml test compound, Test method (i) (asterisk in Table 4), 5 min prior to LTD4. The data set is classed as cell-based. How it is done: (§2) (i) LTC4 and LTD4 antagonisms in guinea-pig trachea
(§3) Antagonisms for LTC4 and LTD4 were determined in isolated guinea-pig trachea prepared as spiral strip. Tracheal preparations were suspended under 1 g tension in 10 ml organ baths and they were incubated for 1 hr prior to use. Contractile responses to LTC4 (2×10^-8 g/ml) and LTD4 (2×10^-8 g/ml) were obtained after the maximal response to histamine (10^-4 M). Test compounds dissolved in 100% dimethyl sulfoxide were added to the organ baths (final concentration of 10^-5 g/ml or 10^-6 g/ml) 5 min prior to LTC4 and LTD4 addition, and then contractile responses to LTC4 and LTD4 were compared with those of control which was obtained from a paired trachea in the absence of test compounds. LTC4 - and LTD4 -induced contractions were expressed as a percentage of the maximal response to histamine. The antagonism was determined as follows:
(§4) Antagonism (%)=(1.0-% contraction in test/% contraction in control)×100

The test system of data set [4] is LTC4. In words: LTC4 antagonism in isolated guinea-pig trachea (method (i)). The class given is cell-based. Conditions: Cavia porcellus, 5 min; 10^-5 g/ml test compound, 5 min prior to LTC4 (2×10^-8 g/ml). How it is done:
as §2, §3, §4

The subject of data set [5] is antigen-induced anaphylactic bronchoconstriction in passively sensitized guinea-pig. Nature of the data set: Anaphylactic bronchoconstriction in passively sensitized guinea-pig, p.o. test. The class given is in vivo. The following applies: for Inhibition (%) of bronchoconstriction: 2 hours prior to EA challenge (0.2 mg/kg). How it is done:
as §1
Male guinea-pigs (350-450 g) were passively sensitized with intravenous (i.v.) injection of 0.125 ml rabbit anti-EA (egg albumin) serum (Cappel Laboratories) 1 to 2 days preceding the experiment. Antigen-induced anaphylactic bronchoconstrictions were measured by modified method of Konzett and Rossler (Arch. Exp. Path. Pharmak., 195, 71, 1940). Sensitized guinea-pigs were anaesthetized with intraperitoneal injection of urethane (1.5 g/kg). The right jugular vein was cannulated for the administration of the all agents and trachea was cannulated to record total pulmonary resistance. Guinea-pigs were artificially ventilated by a small animal respirator (Shinano, Model SN-480-7) set at a stroke volume of 4.5 ml and a rate of 50 breaths per min. The change in pulmonary resistance was measured with a pressure transducer (Nihon Kohden, Model TP-602T) connected to a T-tube on the tracheal cannula. The increase in air overflow volume was expresssed as a percentage of the maximum bronchoconstriction obtained by clamping off the trachea. Following surgical preparation, the animals were pretreated with indomethacin (0.2 mg/kg, 10 min), pyrilamine (2 mg/kg, 6 min) and propanolol (0.1 mg/kg, 5 min) prior to the EA challenge (0.1 or 10 mg/kg). All test compounds were administered intraveneously or orally before the EA challenge. Inhibition (%) of bronchoconstriction was determined as follows: Inhibition (%)=(1.0%-maximum bronchoconstriction in test/% maximum bronchoconstriction in control)×100. The maximum bronchoconstriction was btained within 30 min after the EA challenge. The number of test animals was 4 in the i.v. test and 6 in the p.o. test.
(b) The p.o. test: A test compound was suspended in 5% gum arabic and orally administered 2 hours prior to the EA challenge (0.2 mg/kg). The reaction of the control was 62±6%.

Data set [6] has as its system ddY strain male mice. In words: Acute toxicity test, oral (Test method-(2)). The data set is classed as in vivo. The following applies: 7 days. How it is done: The lethal ratio was determined in ddY strain male mice (4 weeks old) at […] 7 days after the oral administration of test compounds.
For data set [7], the system named is LTD4. In words: LTD4 antagonism in isolated guinea-pig trachea with indomethacin (method (ii)). The class given is cell-based. Conditions: Cavia porcellus, 0.5 h, 10^-6 g/ml test compound, 30 min prior to LTD4. How it is done:
(ii) LTD4 antagonism in guinea-pig trachea
Antagonism for LTD4 was determined in isolated guinea-pig trachea prepared as spiral strip. Tracheal preparations were suspended under 1 g tension in 10 ml organ baths containing […] of indomethacin and they were incubated for 1 hr prior to use. Contractile responses to LTD4 (2×10^-8 g/ml) were obtained after the maximal respone to hitamine (10^-4 M). Test compounds dissolved in 100% dimethyl sulfoxide were added to the organ baths (final concentration of 10^-6 g/ml) 30 min prior to LTD4 addition, and then contractile responses to LTD4 were compared with those of control which was obtained from a paired trachea in the absence of test compounds. LTD4 -induced contractions were expressed as a percentage of the maximal response to histamine. The antagonism was determined as follows:
as §4

For the molecule `COc1cccc(CNc2cnn(C3CCCC3)c(=O)c2Cl)c1` [Compound No. 3, 4-Chloro-5-(3-methoxybenzylamino)-2-cyclopentyl-3(2H)pyridazinone], the “Lethal ratio (Death number/Experimental number)” value was 0/2 in data set [1] (i.p. 200 mg/kg) and 0/1 in data set [1] (i.p. 400 mg/kg). For the same molecule, the “Inhibition (%) of bronchoconstriction” value in data set [2] was 31%. The values for the inhibition at 10 µg/mL in data set [3] and in data set [4] were 82% and 97%, respectively.

Regarding `COc1ccc(CNc2cnn(CC(=O)O)c(=O)c2Cl)cc1OC` [Compound No. 10, 4-Chloro-5-(3,4-dimethoxybenzylamino)-2-(carboxymethyl)-3(2H)pyridazinone], the inhibition (usually the percentage by which the read-out fell short of the control) at 10 µg/mL in data set [3] was 20%; in data set [4], 29%.

As to `CCOc1cc(CNc2cnn(C)c(=O)c2Cl)ccc1OC` [Compound No. 13], the “Lethal ratio (Death number/Experimental number)” value in data set [1] (i.p. 200 mg/kg) is listed as 0/2; in data set [1] (i.p. 400 mg/kg), 0/1. The “Inhibition (%) of bronchoconstriction” value in data set [2] turned out to be 19%. Further, the inhibition at 10 µg/mL stood at 79% in data set [3] and 81% in data set [4].

On to `CCCOc1cc(CNc2cn[nH]c(=O)c2Cl)ccc1OC` [Compound No. 32], for which the “Inhibition (%) of bronchoconstriction” value in data set [5] (p.o. 50 mg/kg) is 71%. Moreover, in data set [3], the inhibition at 10 µg/mL is 100% and the inhibition at 1 µg/mL came out at 64%.

As to `CCCCOc1cc(CNc2cn[nH]c(=O)c2Br)ccc1OC` [Compound No. 38], in data set [5] (p.o. 30 mg/kg), the “Inhibition (%) of bronchoconstriction” value is recorded as 53%. This molecule gave an inhibition at 1 µg/mL in data set [3] of 80%. Besides, the “Lethal ratio (Death number/Experimental number)” value in data set [6] (oral 400 mg/kg) and in data set [6] (oral 800 mg/kg) was 0/3 each time.

For the molecule `CCCc1c(OCC(O)COc2ccc3c(=O)cc(C(=O)O)oc3c2CCC)ccc(C(C)=O)c1O` (stereo not drawn) [FPL-55712, reference compound], the “Inhibition of bronchoconstriction (in words)” value in data set [5] (p.o. 100 mg/kg) is recorded as “No substantial inhibition”. Moreover, the “Inhibition (%) of bronchoconstriction” value in data set [2] is 27%. In addition, the inhibition at 10 µg/mL in data set [3] is 97%; in data set [4] it was 100%. In addition, the inhibition at 1 µg/mL was 76% in data set [3] and 94% in data set [7].

As to `CCCOc1cc(CNc2cn[nH]c(=O)c2Br)ccc1OC` [compound 30], in data set [5] (p.o. 50 mg/kg), the “Inhibition (%) of bronchoconstriction” value turned out to be 65%. In data set [3], this molecule displayed an inhibition at 10 µg/mL of 100% and an inhibition at 1 µg/mL of 78%.

On to `CCOc1cc(CNc2cn[nH]c(=O)c2Br)ccc1OC` [compound 36], for which, in data set [5] (p.o. 50 mg/kg), the “Inhibition (%) of bronchoconstriction” value is given as 68%. The inhibition at 1 µg/mL in data set [3] amounted to 70%.
